According to ChEMBL document CHEMBL4725408, “Antibacterial Spiropyrimidinetriones with N-Linked Azole Substituents on a Benzisoxazole Scaffold Targeting DNA Gyrase” (J Med Chem, 2020):
Values after ≈ are worked out from the molar mass of the structure shown.

Columns and labels:
[1] = Plasma clearance in Wistar Han rat at 3 mg/kg, iv administered as 15 mins infusion by LC-MS/MS analysis; type: ADME, organism-based; design: unit not given here; settings: in vivo, 0.25 h
Staphylococcus aureus [2] = assay: Antibacterial activity against methicillin sensitive Staphylococcus aureus ARC516 by broth microdilution method; type: functional
[3] = Unbound plasma clearance in Wistar Han rat at 3 mg/kg, iv administered as 15 mins infusion by LC-MS/MS analysis; type: ADME, organism-based; design: unit not given here; settings: in vivo, 0.25 h
Streptococcus pneumoniae = assay: Antibacterial activity against Streptococcus pneumoniae ARC548 by broth microdilution method; type: functional
Escherichia coli = assay: Antibacterial activity against Escherichia coli ARC523 by broth microdilution method; type: functional
Staphylococcus aureus [4] = assay: Antibacterial activity against methicillin sensitive Staphylococcus aureus ARC516 in presence of human serum by broth microdilution method; type: functional
[5] = Solubility of the compound by high throughput solubility assay; type: physicochemical
Streptococcus pyogenes = assay: Antibacterial activity against Streptococcus pyogenes ARC838 by broth microdilution method; type: functional
[6] = Inhibition of recombinant Escherichia coli DNA gyrase AB expressed in Escherichia coli BL21 (DE3) using relaxed pJT519 DNA as substrate preincubated for 20 mins followed by 5'-BODIPY-TMR-TTCTTCTTCT addition and measured after 1 hr by fluorescence anisotropy
Staphylococcus aureus [7] = assay: Antibacterial activity against methicillin/quinolone-resistant Staphylococcus aureus ARC517 by broth microdilution method; type: functional
[8] = Protein binding in human plasma assessed as unbound fraction at 10 uM measured after 16 hrs by LC-MS/MS based equilibrium dialysis method; type: ADME, cell-free
Haemophilus influenzae = assay: Antibacterial activity against Haemophilus influenzae ARC737 by broth microdilution method; type: functional
[9] = n-octanol/phosphate buffer partition coefficient, log D of the compound at pH 7.4 measured after 1 hr by UV-LC/MS based shake flask method; type: physicochemical
[10] = Ratio of MIC for antibacterial activity against methicillin/quinolone-resistant Staphylococcus aureus ARC517 to protein binding in human plasma assessed as unbound fraction
L5178Y = assay: Genotoxicity in mouse L5178Y cells using DAPI staining by microscopy based micronucleation assay; type: toxicity, cell-based

SMILES	CL [1]	MIC (Staphylococcus aureus [2])	CL free [3]	MIC (Streptococcus pneumoniae)	MIC (Escherichia coli)	MIC (Staphylococcus aureus [4])	solubility [5]	MIC (Streptococcus pyogenes)	IC50 [6]	MIC (Staphylococcus aureus [7])	fraction unbound at 16 h, 10 µM [8]	MIC (Haemophilus influenzae)	logD at 1 h [9]	Ratio [10]	NOAEL (L5178Y)
CCNc1ncnn1-c1noc2c(F)c3c(cc12)CC1(C(=O)NC(=O)NC1=O)[C@H]1[C@H](C)O[C@H](C)CN31	11	0.049 µM (≈ 0.0244 µg/mL)	130	< 0.2 µM	12 µM (≈ 5.98 µg/mL)	< 0.2 µM	3 µM (≈ 1.5 µg/mL)	< 0.2 µM	97 nM	0.098 µM (≈ 0.0489 µg/mL)	0.037	0.39 µM (≈ 0.194 µg/mL)	2.2	–	–
C[C@@H]1CN2c3c(cc4c(-n5cnnc5)noc4c3F)CC3(C(=O)NC(=O)NC3=O)[C@H]2[C@H](C)O1	–	6.25 µM (≈ 2.85 µg/mL)	–	–	> 200 µM	12.5 µM	> 1000 µM	–	300 nM	25 µM (≈ 11.4 µg/mL)	0.34	–	0.54	74	–
C[C@@H]1CN2c3c(cc4c(-n5ncnc5NC[C@@H](C)O)noc4c3F)CC3(C(=O)NC(=O)NC3=O)[C@H]2[C@H](C)O1	–	0.098 µM (≈ 0.0518 µg/mL)	–	< 0.2 µM	25 µM (≈ 13.2 µg/mL)	< 0.2 µM	> 1000 µM	< 0.2 µM	160 nM	0.63 µM (≈ 0.333 µg/mL)	0.13	0.39 µM (≈ 0.206 µg/mL)	1.9	–	12 µM
COCc1ncnn1-c1noc2c(F)c3c(cc12)CC1(C(=O)NC(=O)NC1=O)[C@H]1[C@H](C)O[C@H](C)CN31	17	< 0.2 µM	120	0.78 µM (≈ 0.39 µg/mL)	70 µM (≈ 35 µg/mL)	0.39 µM	890 µM (≈ 445 µg/mL)	0.78 µM (≈ 0.39 µg/mL)	1100 nM	0.39 µM (≈ 0.195 µg/mL)	0.14	0.78 µM (≈ 0.39 µg/mL)	1.7	–	12 µM
C[C@@H]1CN2c3c(cc4c(-n5ncnc5NCC(=O)N5CC[C@H](N(C)C)C5)noc4c3F)CC3(C(=O)NC(=O)NC3=O)[C@H]2[C@H](C)O1	–	0.2 µM (≈ 0.125 µg/mL)	–	< 0.2 µM	50 µM (≈ 31.2 µg/mL)	0.2 µM	880 µM (≈ 550 µg/mL)	0.39 µM (≈ 0.244 µg/mL)	180 nM	2.2 µM (≈ 1.37 µg/mL)	0.26	1.6 µM (≈ 0.999 µg/mL)	1.7	–	12 µM
C[C@@H]1CN2c3c(cc4c(-n5ccnc5)noc4c3F)CC3(C(=O)NC(=O)NC3=O)[C@H]2[C@H](C)O1 (racemic)	–	1.56 µM (≈ 0.709 µg/mL)	–	–	50 µM (≈ 22.7 µg/mL)	12.5 µM	12 µM (≈ 5.45 µg/mL)	–	490 nM	12.5 µM (≈ 5.68 µg/mL)	0.031	–	2	400	–
C[C@@H]1CN2c3c(cc4c(-n5ncnc5CN(C)C)noc4c3F)CC3(C(=O)NC(=O)NC3=O)[C@H]2[C@H](C)O1	23	< 0.2 µM	110	1.6 µM (≈ 0.82 µg/mL)	50 µM (≈ 25.6 µg/mL)	0.39 µM	> 1000 µM	1.6 µM (≈ 0.82 µg/mL)	590 nM	0.78 µM (≈ 0.4 µg/mL)	0.18	1.6 µM (≈ 0.82 µg/mL)	0.93	–	–
C[C@@H]1CN2c3c(cc4c(-n5cccn5)noc4c3F)CC3(C(=O)NC(=O)NC3=O)[C@H]2[C@H](C)O1 (racemic)	–	0.39 µM (≈ 0.177 µg/mL)	–	–	25 µM (≈ 11.4 µg/mL)	3.1 µM	29 µM (≈ 13.2 µg/mL)	–	–	0.78 µM (≈ 0.354 µg/mL)	< 0.01	–	3	>80	–
C[C@@H]1CN2c3c(cc4c(-n5ncnc5CO)noc4c3F)CC3(C(=O)NC(=O)NC3=O)[C@H]2[C@H](C)O1	37	0.31 µM (≈ 0.15 µg/mL)	220	0.39 µM (≈ 0.189 µg/mL)	50 µM (≈ 24.3 µg/mL)	0.49 µM	> 1000 µM	0.78 µM (≈ 0.379 µg/mL)	190 nM	1.6 µM (≈ 0.777 µg/mL)	0.17	0.78 µM (≈ 0.379 µg/mL)	1.4	–	12 µM
C[C@@H]1CN2c3c(cc4c(-n5cncn5)noc4c3Cl)CC3(C(=O)NC(=O)NC3=O)[C@H]2[C@H](C)O1	11.6	< 0.2 µM	156	0.39 µM (≈ 0.184 µg/mL)	12 µM (≈ 5.66 µg/mL)	0.39 µM	420 µM (≈ 198 µg/mL)	0.39 µM (≈ 0.184 µg/mL)	120 nM	0.39 µM (≈ 0.184 µg/mL)	0.074	0.78 µM (≈ 0.368 µg/mL)	2	–	< 6 µM
C[C@@H]1CN2c3c(cc4c(-n5ncnc5N)noc4c3F)CC3(C(=O)NC(=O)NC3=O)[C@H]2[C@H](C)O1	–	0.049 µM (≈ 0.0231 µg/mL)	–	0.098 µM (≈ 0.0461 µg/mL)	12 µM (≈ 5.65 µg/mL)	< 0.2 µM	460 µM (≈ 216 µg/mL)	0.098 µM (≈ 0.0461 µg/mL)	75 nM	< 0.2 µM	0.11	0.39 µM (≈ 0.183 µg/mL)	1.9	–	6 µM
CNc1ncnn1-c1noc2c(F)c3c(cc12)CC1(C(=O)NC(=O)NC1=O)[C@H]1[C@H](C)O[C@H](C)CN31	32	0.049 µM (≈ 0.0237 µg/mL)	190	0.19 µM (≈ 0.092 µg/mL)	16 µM (≈ 7.75 µg/mL)	< 0.2 µM	280 µM (≈ 136 µg/mL)	0.19 µM (≈ 0.092 µg/mL)	71 nM	0.2 µM (≈ 0.0969 µg/mL)	0.08	0.39 µM (≈ 0.189 µg/mL)	2.1	–	3 µM
C[C@@H]1CN2c3c(cc4c(-n5cnc(C#N)n5)noc4c3F)CC3(C(=O)NC(=O)NC3=O)[C@H]2[C@H](C)O1	200	0.2 µM (≈ 0.0961 µg/mL)	2600	1.6 µM (≈ 0.769 µg/mL)	100 µM (≈ 48 µg/mL)	3.1 µM	5 µM (≈ 2.4 µg/mL)	0.8 µM (≈ 0.384 µg/mL)	1300 nM	0.39 µM (≈ 0.187 µg/mL)	–	3.1 µM (≈ 1.49 µg/mL)	2	–	< 6 µM
C[C@@H]1CN2c3c(cc4c(-n5nccn5)noc4c3F)CC3(C(=O)NC(=O)NC3=O)[C@H]2[C@H](C)O1	–	< 0.2 µM	–	–	12.5 µM (≈ 5.69 µg/mL)	1.56 µM	810 µM (≈ 369 µg/mL)	–	240 nM	0.78 µM (≈ 0.355 µg/mL)	0.031	–	1.95	25	–
CNS(=O)(=O)c1cnn(-c2noc3c(F)c4c(cc23)CC2(C(=O)NC(=O)NC2=O)[C@H]2[C@H](C)O[C@H](C)CN42)c1	–	0.39 µM (≈ 0.214 µg/mL)	–	–	50 µM (≈ 27.4 µg/mL)	1.6 µM	21 µM (≈ 11.5 µg/mL)	–	610 nM	1.56 µM (≈ 0.854 µg/mL)	0.068	–	2.2	23	–
CO/N=C1\CN(c2nc3c(cc2F)c(=O)c(C(=O)O)cn3C2CC2)CC1CN (centres undefined) [GEMIFLOXACIN]	–	–	–	–	–	–	–	–	–	–	–	–	–	–	3 µM
C[C@@H]1CN2c3c(cc4c(-n5ccnn5)noc4c3F)CC3(C(=O)NC(=O)NC3=O)[C@H]2[C@H](C)O1	–	0.068 µM (≈ 0.031 µg/mL)	–	–	6.25 µM (≈ 2.85 µg/mL)	0.78 µM	130 µM (≈ 59.2 µg/mL)	–	220 nM	0.39 µM (≈ 0.178 µg/mL)	0.054	–	2	7.2	–
Cc1ncnn1-c1noc2c(F)c3c(cc12)CC1(C(=O)NC(=O)NC1=O)[C@H]1[C@H](C)O[C@H](C)CN31	–	0.2 µM (≈ 0.0939 µg/mL)	–	0.78 µM (≈ 0.366 µg/mL)	50 µM (≈ 23.5 µg/mL)	0.39 µM	22 µM (≈ 10.3 µg/mL)	0.55 µM (≈ 0.258 µg/mL)	340 nM	0.39 µM (≈ 0.183 µg/mL)	0.098	1.6 µM (≈ 0.751 µg/mL)	2.1	–	–
C[C@@H]1CN2c3c(cc4c(-n5ncnc5NCCN5CCOCC5)noc4c3F)CC3(C(=O)NC(=O)NC3=O)[C@H]2[C@H](C)O1	–	< 0.2 µM	–	0.39 µM (≈ 0.228 µg/mL)	100 µM (≈ 58.4 µg/mL)	0.78 µM	150 µM (≈ 87.5 µg/mL)	0.39 µM (≈ 0.228 µg/mL)	310 nM	3.5 µM (≈ 2.04 µg/mL)	0.11	1.6 µM (≈ 0.934 µg/mL)	2.1	–	–
C[C@@H]1CN2c3c(cc4c(-n5ncnc5NCCN(C)C)noc4c3F)CC3(C(=O)NC(=O)NC3=O)[C@H]2[C@H](C)O1	–	0.78 µM (≈ 0.422 µg/mL)	–	0.39 µM (≈ 0.211 µg/mL)	50 µM (≈ 27.1 µg/mL)	0.78 µM	> 1000 µM	0.39 µM (≈ 0.211 µg/mL)	150 nM	6.2 µM (≈ 3.36 µg/mL)	0.53	1.6 µM (≈ 0.866 µg/mL)	1.4	–	> 400 µM
C[C@@H]1CN2c3c(cc4c(-n5cc(C#N)cn5)noc4c3F)CC3(C(=O)NC(=O)NC3=O)[C@H]2[C@H](C)O1	–	< 0.2 µM	–	–	25 µM (≈ 12 µg/mL)	0.39 µM	10 µM (≈ 4.79 µg/mL)	–	400 nM	0.2 µM (≈ 0.0959 µg/mL)	0.044	–	2.4	4.5	–
C[C@@H]1CN2c3c(cc4c(-n5ncnc5NCC(=O)N5CC[C@@H](N(C)C)C5)noc4c3F)CC3(C(=O)NC(=O)NC3=O)[C@H]2[C@H](C)O1	–	0.2 µM (≈ 0.125 µg/mL)	–	< 0.2 µM	25 µM (≈ 15.6 µg/mL)	0.2 µM	690 µM (≈ 431 µg/mL)	0.39 µM (≈ 0.244 µg/mL)	80 nM	1.6 µM (≈ 0.999 µg/mL)	0.26	1.6 µM (≈ 0.999 µg/mL)	1.3	–	–
